Tests used:
[1] = ribociclib CYP3A4 inhibitor, everolimus CYP3A4 substrate; cited from earlier work
[2] = Everolimus whole blood pharmacokinetics; assay type: in vivo, human; settings: for AUC(0-t): AUC0–24h at steady state; for AUC(0-t) / Cmax: everolimus 2.5 mg; for Cmax: geometric mean Cmax at steady state
[3] = tested on: postmenopausal women with ER+, HER2− ABC; assay: Dose-limiting toxicities in cycle 1; assay type: in vivo
[4] = tested on: postmenopausal women with HR+, HER2− advanced breast cancer; assay: Safety and tolerability; assay type: in vivo, human
[5] = Ribociclib plasma pharmacokinetics; assay type: in vivo, human; settings: for AUC(0-t): geometric mean AUC0–24h at steady state; for half-life: geometric mean effective half-life based on drug accumulation
[6] = female, human, whole blood, oral, dose-escalation group 1
[7] = female, human, whole blood, oral, dose-escalation group 2
[8] = taken with food, ribociclib 3 weeks on/1 week off in a 4-week cycle
[9] = dose-escalation group 1 (fasting)
[10] = dose-expansion group 1 (CDK4/6i-naïve)
[11] = dose-expansion group 2 (CDK4/6i-refractory)
[12] = female, human, plasma, oral, dose-escalation group 1
[13] = female, human, plasma, oral, dose-escalation group 2

SMILES: CO[C@H]1C[C@@H]2CC[C@@H](C)[C@@](O)(O2)C(=O)C(=O)N2CCCC[C@H]2C(=O)O[C@H]([C@H](C)C[C@@H]2CC[C@@H](OCCO)[C@H](OC)C2)CC(=O)[C@H](C)/C=C(\C)[C@@H](O)[C@@H](OC)C(=O)[C@H](C)C[C@H](C)/C=C/C=C/C=C/1C [everolimus]
- expected increase of everolimus exposure by treatment with ribociclib [1]: approximately 3.5 fold
- AUC0–24h ([2]; at the RP2D): 303 ng·h/mL
- everolimus exposure increase in the presence of ribociclib (dose-dependent DDI) ([2]; dose-escalation phase): two- to fourfold
- Tmax ([2]; female, human, whole blood, oral): 1 to 2 h
- AUC(0-t) [2, 6]: 166 to 307 ng·h/mL
- AUC(0-t) [2, 7]: 117 to 316 ng·h/mL
- Cmax [2, 6]: 19.7 to 30.3 ng/mL
- Cmax [2, 7]: 8.25 to 29.4 ng/mL
- recommended phase II dose (RP2D) in the triplet [3, 8]: 2.5 mg once daily
- patients requiring ≥1 dose interruption [4, 9]: 70.7%
- patients requiring ≥1 dose reduction [4, 9]: 2.4%
- patients requiring ≥1 dose interruption ([4]; dose-escalation group 2 (fed)): 83.3%
- patients requiring ≥1 dose reduction ([4]; dose-escalation group 2 (fed)): 4.8%
- dose reductions ([4]; dose-expansion phase): no dose reductions

SMILES: C=C1C[C@@H]2[C@H](CC[C@]3(C)C(=O)CC[C@@H]23)[C@@]2(C)C=CC(=O)C=C12 [exemestane]
- recommended phase II dose (RP2D) in the triplet ([3]; female, human, in vivo, 28 days): 25 mg once daily
- patients requiring ≥1 dose interruption [4, 9]: 61%
- patients requiring ≥1 dose interruption ([4]; dose-escalation group 2 (fed)): 71.4%

SMILES: CN(C)C(=O)c1cc2cnc(Nc3ccc(N4CCNCC4)cn3)nc2n1C1CCCC1 [ribociclib]
- recommended phase II dose (RP2D) in the triplet [3, 8]: 300 mg once daily
- patients requiring ≥1 dose interruption [4, 9]: 68.3%
- patients requiring ≥1 dose reduction [4, 9]: 22.0%
- patients requiring ≥1 dose interruption ([4]; dose-escalation group 2 (fed)): 80.9%
- patients requiring ≥1 dose reduction ([4]; dose-escalation group 2 (fed)): 33.3%
- patients requiring ≥1 dose interruption [4, 10]: 87.5%
- patients requiring ≥1 dose reduction [4, 10]: 43.8%
- patients requiring ≥1 dose interruption [4, 11]: 82.4%
- patients requiring ≥1 dose reduction [4, 11]: 23.5%
- Tmax ([5]; female, human, plasma, oral): 1 to 4 h
- Cmax ([5]; female, human, plasma, oral, Cmax at steady state, at the RP2D): 773 ng/mL
- AUC(0-t) [5, 12]: 4570 to 11100 ng·h/mL
- AUC(0-t) [5, 13]: 3970 to 13400 ng·h/mL
- Cmax ([5]; female, human, plasma, oral, geometric mean Cmax at steady state, dose-escalation group 1, 200–350 mg dose): 413 to 1000 ng/mL
- Cmax ([5]; female, human, plasma, oral, geometric mean Cmax at steady state, dose-escalation group 2): 289 to 955 ng/mL
- half-life [5, 12]: 24.9 to 47.6 h
- half-life [5, 13]: 29.5 to 49.9 h
- mean steady-state exposure in the presence of food ([5]; same dose level, fed versus fasted): slightly lower
- DDI in the presence of everolimus and exemestane ([5]; triplet combination, versus single-agent ribociclib exposure): No DDIs were observed

— PMC8489181 (Clinical cancer research : an official journal of the …, 2020)
